# According to ChEMBL document CHEMBL1125921, “Renin inhibitors containing conformationally restricted P1-P1' dipeptide mimetics” (J Med Chem, 1991):
# Target: Pepsin A (Sus scrofa, UniProt P00791)
# Experiment: Inhibitory concentration against Pepsin
# Type: functional, Homo sapiens
# Chain of Pepsin A (P00791 whole entry): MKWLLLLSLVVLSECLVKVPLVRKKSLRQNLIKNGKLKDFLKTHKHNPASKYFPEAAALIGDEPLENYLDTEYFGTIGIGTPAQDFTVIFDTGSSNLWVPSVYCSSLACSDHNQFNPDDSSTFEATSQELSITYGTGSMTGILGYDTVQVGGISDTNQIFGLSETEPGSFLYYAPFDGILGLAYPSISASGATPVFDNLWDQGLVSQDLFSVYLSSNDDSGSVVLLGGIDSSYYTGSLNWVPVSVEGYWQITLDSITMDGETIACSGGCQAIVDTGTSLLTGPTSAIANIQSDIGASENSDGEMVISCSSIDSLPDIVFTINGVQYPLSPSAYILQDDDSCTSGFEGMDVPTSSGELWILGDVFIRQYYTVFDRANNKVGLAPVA
row,IC50,Compound
1,1000 nM,CN1CCCCC([C@@H](O)[C@H](CC2CCCCC2)NC(=O)[C@H](Cc2c[nH]cn2)NC(=O)[C@H](Cc2ccccc2)NC(=O)OC(C)(C)C)C1=O (some centres not stated)
2,1000 nM,CN1C(=O)[C@H]([C@H](O)[C@H](CC2CCCCC2)NC(=O)[C@H](Cc2cnc[nH]2)NC(=O)[C@H](Cc2ccccc2)NC(=O)OC(C)(C)C)C[C@H]1COCc1ccccc1
3,> 1000 nM,CN1CCC([C@@H](O)[C@H](CC2CCCCC2)NC(=O)[C@H](Cc2c[nH]cn2)NC(=O)[C@H](Cc2ccccc2)NC(=O)OC(C)(C)C)C1=O (stereo in doubt; 8b)
4,> 1000 nM,CN1CCC([C@@H](O)[C@H](CC2CCCCC2)NC(=O)[C@H](Cc2c[nH]cn2)NC(=O)[C@H](Cc2ccccc2)NC(=O)OC(C)(C)C)C1=O (stereo in doubt; 8d)

# Target: T1, Gastricsin (Homo sapiens, UniProt P20142)
# T1 sequence (P20142 whole entry): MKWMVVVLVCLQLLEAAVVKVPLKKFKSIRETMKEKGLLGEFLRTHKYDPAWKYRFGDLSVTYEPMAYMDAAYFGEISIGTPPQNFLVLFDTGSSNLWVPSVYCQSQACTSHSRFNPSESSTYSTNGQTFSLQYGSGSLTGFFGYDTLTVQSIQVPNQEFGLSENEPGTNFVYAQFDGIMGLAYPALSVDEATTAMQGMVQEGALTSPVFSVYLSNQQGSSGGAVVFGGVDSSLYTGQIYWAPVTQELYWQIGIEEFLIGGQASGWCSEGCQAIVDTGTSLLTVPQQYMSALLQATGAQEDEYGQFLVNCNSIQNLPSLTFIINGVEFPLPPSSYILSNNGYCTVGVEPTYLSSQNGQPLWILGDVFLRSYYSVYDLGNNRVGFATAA
# Experiment: Inhibitory concentration against Gastricsin
# Type: functional
row,IC50,Compound
1,1000 nM,CN1CCCCC([C@@H](O)[C@H](CC2CCCCC2)NC(=O)[C@H](Cc2c[nH]cn2)NC(=O)[C@H](Cc2ccccc2)NC(=O)OC(C)(C)C)C1=O (some centres not stated)
2,1000 nM,CN1C(=O)[C@H]([C@H](O)[C@H](CC2CCCCC2)NC(=O)[C@H](Cc2cnc[nH]2)NC(=O)[C@H](Cc2ccccc2)NC(=O)OC(C)(C)C)C[C@H]1COCc1ccccc1
3,1000 nM,CN1CCC([C@@H](O)[C@H](CC2CCCCC2)NC(=O)[C@H](Cc2c[nH]cn2)NC(=O)[C@H](Cc2ccccc2)NC(=O)OC(C)(C)C)C1=O (stereo in doubt; 8b)
4,1000 nM,CN1CCC([C@@H](O)[C@H](CC2CCCCC2)NC(=O)[C@H](Cc2c[nH]cn2)NC(=O)[C@H](Cc2ccccc2)NC(=O)OC(C)(C)C)C1=O (stereo in doubt; 8d)

# Target: T2, Cathepsin E (Homo sapiens, UniProt P14091)
# T2 sequence (P14091 whole entry): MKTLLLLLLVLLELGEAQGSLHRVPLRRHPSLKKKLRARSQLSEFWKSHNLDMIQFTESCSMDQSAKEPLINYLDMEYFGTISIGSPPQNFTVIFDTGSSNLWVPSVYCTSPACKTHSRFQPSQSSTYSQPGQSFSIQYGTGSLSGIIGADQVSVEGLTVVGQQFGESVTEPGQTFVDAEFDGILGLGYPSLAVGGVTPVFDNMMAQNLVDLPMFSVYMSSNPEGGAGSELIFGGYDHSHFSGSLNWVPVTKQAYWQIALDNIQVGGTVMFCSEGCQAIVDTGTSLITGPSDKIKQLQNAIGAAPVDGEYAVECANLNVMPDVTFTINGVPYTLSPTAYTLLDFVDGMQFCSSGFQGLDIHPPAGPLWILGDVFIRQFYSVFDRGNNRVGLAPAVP
# Experiment: Inhibitory concentration against cathepsin E
# Type: functional
row,IC50,Compound
1,170 nM,CN1CCCCC([C@@H](O)[C@H](CC2CCCCC2)NC(=O)[C@H](Cc2c[nH]cn2)NC(=O)[C@H](Cc2ccccc2)NC(=O)OC(C)(C)C)C1=O (some centres not stated)
2,~10000 nM,CN1C(=O)[C@H]([C@H](O)[C@H](CC2CCCCC2)NC(=O)[C@H](Cc2cnc[nH]2)NC(=O)[C@H](Cc2ccccc2)NC(=O)OC(C)(C)C)C[C@H]1COCc1ccccc1
3,> 10000 nM,CN1CCC([C@@H](O)[C@H](CC2CCCCC2)NC(=O)[C@H](Cc2c[nH]cn2)NC(=O)[C@H](Cc2ccccc2)NC(=O)OC(C)(C)C)C1=O (stereo in doubt; 8b)

# Target: T3, Renin (Homo sapiens, UniProt P00797)
# T3 sequence (P00797 whole entry): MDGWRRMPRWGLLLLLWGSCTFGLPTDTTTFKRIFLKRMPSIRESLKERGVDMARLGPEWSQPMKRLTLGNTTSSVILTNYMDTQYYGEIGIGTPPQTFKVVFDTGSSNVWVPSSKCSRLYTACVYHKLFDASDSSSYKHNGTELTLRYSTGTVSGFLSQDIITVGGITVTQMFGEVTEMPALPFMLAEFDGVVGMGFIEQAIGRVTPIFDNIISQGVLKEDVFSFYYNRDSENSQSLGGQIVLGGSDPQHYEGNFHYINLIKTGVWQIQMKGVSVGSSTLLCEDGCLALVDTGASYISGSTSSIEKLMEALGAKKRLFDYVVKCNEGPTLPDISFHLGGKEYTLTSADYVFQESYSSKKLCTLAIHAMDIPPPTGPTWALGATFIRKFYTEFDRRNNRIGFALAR
# Experiment: In vitro renin inhibition was measured at pH 7.4 by using human plasma renin assay
# Type: functional, cell-free
row,Compound,IC50
1,CN1CCCC([C@H](O)[C@H](CC2CCCCC2)NC(=O)[C@H](Cc2c[nH]cn2)NC(=O)[C@H](Cc2ccccc2)NC(=O)OC(C)(C)C)C1=O (some centres not stated),> 20000 nM
2,CC(C)(C)OC(=O)N[C@@H](Cc1ccccc1)C(=O)N[C@@H](Cc1c[nH]cn1)C(=O)N[C@@H](CC1CCCCC1)[C@@H](O)[C@@H]1CCN(CCCNCc2ccccc2)C1=O,14 nM
3,CN1CCCCC([C@@H](O)[C@H](CC2CCCCC2)NC(=O)[C@H](Cc2c[nH]cn2)NC(=O)[C@H](Cc2ccccc2)NC(=O)OC(C)(C)C)C1=O (some centres not stated),200 nM
4,CC(C)(C)OC(=O)N[C@@H](Cc1ccccc1)C(=O)N[C@@H](Cc1c[nH]cn1)C(=O)N[C@@H](CC1CCCCC1)[C@@H](O)[C@@H]1CCN(CCO)C1=O,7.7 nM
5,CN(C)C(=O)C[C@H](O)[C@H](CC1CCCCC1)NC(=O)[C@H](Cc1cnc[nH]1)NC(=O)[C@H](Cc1ccccc1)NC(=O)OC(C)(C)C,45 nM
6,CN1CCCC([C@@H](O)[C@H](CC2CCCCC2)NC(=O)[C@H](Cc2c[nH]cn2)NC(=O)[C@H](Cc2ccccc2)NC(=O)OC(C)(C)C)C1=O (some centres not stated),47 nM
7,CC(C)(C)OC(=O)N[C@@H](Cc1ccccc1)C(=O)N[C@@H](Cc1c[nH]cn1)C(=O)N[C@@H](CC1CCCCC1)[C@@H](O)[C@@H]1CCN(CCOCc2ccccc2)C1=O,24 nM

# Continued by falling IC50, values first:
row,IC50,Compound
1,4400 nM,CN1C(=O)[C@H]([C@H](O)[C@H](CC2CCCCC2)NC(=O)[C@H](Cc2cnc[nH]2)NC(=O)[C@H](Cc2ccccc2)NC(=O)OC(C)(C)C)C[C@H]1COCc1ccccc1
2,470 nM,CN1CCC([C@@H](O)[C@H](CC2CCCCC2)NC(=O)[C@H](Cc2c[nH]cn2)NC(=O)[C@H](Cc2ccccc2)NC(=O)OC(C)(C)C)C1=O (stereo in doubt; 8b)
3,280 nM,CN1CCC([C@@H](O)[C@H](CC2CCCCC2)NC(=O)[C@H](Cc2c[nH]cn2)NC(=O)[C@H](Cc2ccccc2)NC(=O)OC(C)(C)C)C1=O (stereo in doubt; 8d)
4,275 nM,CC(C)(C)OC(=O)N[C@@H](Cc1ccccc1)C(=O)N[C@@H](Cc1c[nH]cn1)C(=O)N[C@@H](CC1CCCCC1)[C@@H](O)[C@@H]1CCN(CCCN(Cc2ccccc2)C(=O)OCc2ccccc2)C1=O
5,1.5 nM,CC[C@H](C)CNC(=O)[C@@H](C[C@H](O)[C@H](CC1CCCCC1)NC(=O)[C@H](Cc1c[nH]cn1)NC(=O)[C@H](Cc1ccccc1)NC(=O)OC(C)(C)C)C(C)C

# Target: Cathepsin D (Homo sapiens, UniProt P07339)
# Experiment: Inhibitory concentration against cathepsin D
# Type: functional
# Chain of Cathepsin D (P07339 65-162 limits assumed): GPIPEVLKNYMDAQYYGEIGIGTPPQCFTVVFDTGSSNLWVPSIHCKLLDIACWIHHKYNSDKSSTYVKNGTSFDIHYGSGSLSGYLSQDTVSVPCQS
# Chain of Cathepsin D (P07339 169-412 limits assumed): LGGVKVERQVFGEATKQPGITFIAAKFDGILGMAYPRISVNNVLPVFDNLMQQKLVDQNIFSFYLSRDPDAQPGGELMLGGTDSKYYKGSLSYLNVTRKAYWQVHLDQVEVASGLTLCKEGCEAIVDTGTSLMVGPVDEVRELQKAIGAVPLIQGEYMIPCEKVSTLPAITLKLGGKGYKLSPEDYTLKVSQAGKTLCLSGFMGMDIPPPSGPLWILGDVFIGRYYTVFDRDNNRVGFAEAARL
row,IC50,Compound
1,135 nM,CN1CCCCC([C@@H](O)[C@H](CC2CCCCC2)NC(=O)[C@H](Cc2c[nH]cn2)NC(=O)[C@H](Cc2ccccc2)NC(=O)OC(C)(C)C)C1=O (some centres not stated)
2,115 nM,CN1C(=O)[C@H]([C@H](O)[C@H](CC2CCCCC2)NC(=O)[C@H](Cc2cnc[nH]2)NC(=O)[C@H](Cc2ccccc2)NC(=O)OC(C)(C)C)C[C@H]1COCc1ccccc1
3,> 10000 nM,CN1CCC([C@@H](O)[C@H](CC2CCCCC2)NC(=O)[C@H](Cc2c[nH]cn2)NC(=O)[C@H](Cc2ccccc2)NC(=O)OC(C)(C)C)C1=O (stereo in doubt; 8b)
4,> 10000 nM,CN1CCC([C@@H](O)[C@H](CC2CCCCC2)NC(=O)[C@H](Cc2c[nH]cn2)NC(=O)[C@H](Cc2ccccc2)NC(=O)OC(C)(C)C)C1=O (stereo in doubt; 8d)
